{"source": "patent US20110269626A1", "about": "“HERBICIDAL COMPOSITIONS COMPRISING HPPD-INHIBITORS AND METHODS OF CONTROLLING WEEDS IN TURFGRASSES” (priority 2008, published 2011)", "type_in_all_cases": "in vivo", "key": {"warm season turfgrasses": {"test_system": "warm season turfgrasses", "experiment": "Safening of liquid mesotrione formulation on warm season turfgrasses (conclusion from Tables 1 and 2)", "conditions": "safener applied in combination with a liquid formulation of mesotrione to warm season turfgrasses", "text": "(§1) A liquid formulation of mesotrione (Callisto®) was applied to bermudagrass (Cynodon dactylon×C. dactylon) and zoysia grass (Zoysia matrella) by spray application, with and without safeners, at various rates as show in the table below. Assessments were made at 7, 14 and 21 days after application, to determine percentage growth inhibition, an percentage toxicity (chlorosis and/or burning)."}, "[1]": {"test_system": "zoysia grass (Zoysia matrella)", "experiment": "Spray application of liquid mesotrione formulation (Callisto) with and without safeners to zoysia grass; percentage toxicity (chlorosis and/or burning)", "text": "as §1"}, "[2]": {"test_system": "bermudagrass (Cynodon dactylon×C. dactylon)", "experiment": "Spray application of liquid mesotrione formulation (Callisto) with and without safeners to bermudagrass; percentage toxicity (chlorosis and/or burning)", "text": "as §1"}, "[3]": {"conditions": "herbicide 140 g ai/ha, safener 70 g ai/ha or none, 7 DAA"}, "[4]": {"conditions": "herbicide 140 g ai/ha, safener 70 g ai/ha or none, 14 DAA"}, "[5]": {"conditions": "herbicide 140 g ai/ha, safener 70 g ai/ha or none, 21 DAA"}, "[6]": {"conditions": "herbicide 280 g ai/ha, safener 140 g ai/ha or none, 7 DAA"}, "[7]": {"conditions": "herbicide 280 g ai/ha, safener 140 g ai/ha or none, 14 DAA"}, "[8]": {"conditions": "herbicide 280 g ai/ha, safener 140 g ai/ha or none, 21 DAA"}}}
{"compound": "CNC(=O)Nc1ccc(S(=O)(=O)NC(=O)c2ccccc2OC)cc1", "note": "[Formula IV]", "values": [{"measurement": "safening", "setting": "warm season turfgrasses", "result": "Particularly good safening"}]}
{"compound": "CS(=O)(=O)c1ccc(C(=O)C2C(=O)CCCC2=O)c([N+](=O)[O-])c1", "note": "[Mesotrione, 2-(2′-nitro-4′-methylsulphonylbenzoyl)-1,3-cyclohexanedione]", "values": [{"measurement": "Percentage toxicity", "setting": "[1]; [3]", "result": 10, "unit": "%"}, {"measurement": "Percentage toxicity", "setting": "[1]; [4]", "result": 40, "unit": "%"}, {"measurement": "Percentage toxicity", "setting": "[1]; [5]", "result": 50, "unit": "%"}, {"measurement": "Percentage toxicity", "setting": "[1]; [6]", "result": 15, "unit": "%"}, {"measurement": "Percentage toxicity", "setting": "[1]; [7]", "result": 50, "unit": "%"}, {"measurement": "Percentage toxicity", "setting": "[1]; [8]", "result": 70, "unit": "%"}, {"measurement": "Percentage toxicity", "setting": "[2]; [3]", "result": 30, "unit": "%"}, {"measurement": "Percentage toxicity", "setting": "[2]; [4]", "result": 10, "unit": "%"}, {"measurement": "Percentage toxicity", "setting": "[2]; [5]", "result": 20, "unit": "%"}, {"measurement": "Percentage toxicity", "setting": "[2]; [6]", "result": 60, "unit": "%"}, {"measurement": "Percentage toxicity", "setting": "[2]; [7]", "result": 50, "unit": "%"}, {"measurement": "Percentage toxicity", "setting": "[2]; [8]", "result": 50, "unit": "%"}]}
